According to patent US20260193246A1, “METHOD OF MAKING LANIFIBRANOR” (INVENTIVA, priority 2023, published 2026):

How the values were obtained:
Type in all cases: physicochemical
[1] = Compressibility index and Hausner ratio from bulk and tapped density (Electrolab ETD-1020)
Experimental: The compressibility index and Hausner ratio were determined using an Electrolab ETD-1020 apparatus using measured values of bulk density (ρbulk) and tapped density (ρtapped) as follows: [formula] [formula]

[2] = Dynamic vapor sorption (DVS); conditions: range 0% RH-95% RH
Text: Crystalline form beta of lanifibranor is also characterized by its dynamic vapor sorption (DVS). […] In some embodiments, the DVS isotherm plot of crystalline form beta of lanifibranor is substantially in accordance with FIG. 4.

Thermogravimetry (TGA) = conditions: temperature range 25-200° C.
Experimental: Crystalline form beta of lanifibranor is also characterized by its thermogravimetry (TGA) curve. […] Above 250° C., the weight loss observed likely corresponds to degradation. In some embodiments, said TGA curve is substantially in accordance with FIG. 3.

[3] = Angle of repose (powder flow, Electrolab EFT-01); conditions: 50 g of powder through an orifice of 25 mm; rounded average of three experiments
Experimental: Powder flow and the angle of repose were determined using an Electrolab EFT-01 apparatus. In a first step, powder flow is measured through various orifices (10, 15 and 25 mm). In a second step, the angle of repose is measured by the height of the cone formed by a sample of 50 g of powder passing through an orifice of 25 mm. The result obtained in the rounded average of three experiments.

O=C(O)CCCc1cc2cc(Cl)ccc2n1S(=O)(=O)c1ccc2ncsc2c1 [crystalline form beta of lanifibranor, 1-(6-benzothiazolylsulfonyl)-5-chloro-1H-indole-2-butanoic acid]
Hausner ratio [1]: 1.26 | compressibility index [1]: 20.64 | maximum uptake (weight variation, DVS) [2]: +0.1% | weight loss (TGA) (Thermogravimetry (TGA)): does not highlight any significant weight loss | angle of repose [3]: 35 °
